Square brackets hold non-standard residues; d marks the D form. Peptide text beside a SMILES is read from it.
Experiments:
[1] = tested on: HMLER; experiment: cells; type: cell-based, human; conditions: 72 h
Excerpt: (§1) […], and MCF-10A cells were maintained in MEGM with supplements and growth factors bovine pituitary extract, hydrocortisone, human epidermal growth factor, insulin, and gentamicin/amphotericin-B.

[2] = tested on: HMLER‐shEcad; experiment: cells; type: cell-based, human; conditions: 72 h
Excerpt: as §1

[3] = tested on: MCF‐10A; experiment: cells; type: cell-based, human; conditions: for IC50: 72 h; for selectivity for cancerous cells over non‐tumorigenic MCF‐10A: 2D culture, ratio of IC50
Excerpt: as §1

[4] = ANTS/DPX liposome leakage assay; conditions: for Peptide Concentration-induced 50 % ANTS/DPX leakage at pH 4.8 (L/P), 3POPC/1POPG Vesicle / Peptide Concentration-induced 50 % ANTS/DPX leakage at pH 4.8 (L/P), POPC Vesicle / Peptide Concentration-induced 50 % ANTS/DPX leakage at pH 7.4 (L/P), 3POPC/1POPG Vesicle / Peptide Concentration-induced 50 % ANTS/DPX leakage at pH 7.4 (L/P), POPC Vesicle: 0.5 mM vesicles, peptide 0-20 µM, 3 h incubation, lipid per peptide; for Peptide Concentration-induced 50 % ANTS/DPX leakage at pH 4.8 (L/P), 3POPC/1POPG Vesicle / Peptide Concentration-induced 50 % ANTS/DPX leakage at pH 4.8 (L/P), POPC Vesicle: HCl-adjusted PBS 1X pH 4.8; for Peptide Concentration-induced 50 % ANTS/DPX leakage at pH 7.4 (L/P), 3POPC/1POPG Vesicle / Peptide Concentration-induced 50 % ANTS/DPX leakage at pH 7.4 (L/P), POPC Vesicle: PBS 1X pH 7.4, high ratio = more potent; for change of ANTS/DPX dye leakage / liposome selectivity at pH 4.8: pH = 4.8 compared with physiological pH, anionic versus neutral liposomes
Method: Vesicle preparation: 5 mM ANTS and 12.5 mM DPX were entrapped in 0.1 µm diameter extruded vesicles (either POPC or POPC/POPG at a ratio of 3:1) with lipids. Gel filtration chromatography of Sephadex G‐100 was used to remove external free ANTS/DPX from LUVs with entrapped contents. LUVs were diluted to 0.5 mM and used to measure the leakage activity by the addition of aliquots of ACPs. Leakage was measured after 3 h incubation. 10% Triton was used as the positive control to measure the maximum leakage of the vesicle. Fluorescence emission spectra were recorded using excitation and emission wavelength of 350 and 510 nm for ANTS/DPX using a BioTek Synergy H1 Hybrid Multi‐Mode Reader.
Peptide Concentration-induced Peptide Concentration-induced
Name Sequence† 50 % ANTS/DPX leakage 50 % ANTS/DPX leakage at pH 7.4 (L/P) at pH 4.8 (L/P)
POPC Vesicle 3POPC/1POPG Vesicle POPC Vesicle 3POPC/1POPG Vesicle […]
Extended Data Table 4 | Peptide concentration-induced 50 % ANTS/DPX liposome leakage. 0.5 mM POPC and 3POPC/1POPG vesicles were fixed and incubated with titrated peptide concentration (0, 0.02, […]
hydrochloric acid-adjusted phoshate buffered saline (1X, pH 4.8). The values are shown as lipid per

[5] = tested on: HEK293T; experiment: cells; type: cell-based, human; conditions: 72 h
[6] = Tryptophan fluorescent binding assay; conditions: tryptophan fluorescence; 50 µM peptide, lipid titrated 0-5000 µM; phosphate buffered saline 1X, pH 7.4; values as lipid per peptide
Method: 50 µM ACP peptides and varied concentrations (concentrations: 0, 25, 50, 100, 150, 200, 250, 500, 1250, and 2500 µM) of POPC or POPC:POPG (3:1 ratio) large unilamellar vesicles were prepared in 10 mM phosphate buffer (pH 7.0). The solutions were measured after 1 h of incubation. Excitation was fixed at 280 nm (slit 9 nm) and emission was collected from 300 to 450 nm (slit 9 nm). The spectra were recorded using Cytation 5 Cell Imaging Multi‐Mode Reader from BioTek and were averaged by three scans.
Lipid Concentration-induced
Name Sequence† 50% Peptide Binding (L/P)
Extended Data Table 3 | Tryptophan binding assay. […]
peptide binding onto liposome. 50 µM peptides were fixed and incubated with titrated lipid (POPC vesicle […]
phosphate buffered saline (1X, pH 7.4). The lipid concentration that causes 50 % peptide binding was determined using tryptophan fluorescent binding assay and the values are shown as lipid per peptide.

[7] = tested on: U2OS; type: cell-based, human; conditions: 72 h

SMILES | IC50 [1] [µM] | IC50 [2] [µM] | IC50 [3] [µM] | Peptide Concentration-induced 50 % ANTS/DPX leakage at pH 4.8 (L/P), 3POPC/1POPG Vesicle [4] [L/P] | Peptide Concentration-induced 50 % ANTS/DPX leakage at pH 4.8 (L/P), POPC Vesicle [4] [L/P] | Peptide Concentration-induced 50 % ANTS/DPX leakage at pH 7.4 (L/P), 3POPC/1POPG Vesicle [4] [L/P] | Peptide Concentration-induced 50 % ANTS/DPX leakage at pH 7.4 (L/P), POPC Vesicle [4] [L/P] | IC50 [5] [µM] | Lipid Concentration-induced 50% Peptide Binding (L/P), 3POPC/1POPG Vesicle [6] [L/P] | Lipid Concentration-induced 50% Peptide Binding (L/P), POPC Vesicle [6] [L/P] | IC50 [7] [µM] | selectivity for cancerous cells over non‐tumorigenic MCF‐10A [3] [fold] | change of ANTS/DPX dye leakage / liposome selectivity at pH 4.8 [4]
CC(C)C[C@H](NC(=O)CN)C(=O)N[C@@H](CC(C)C)C(=O)N[C@@H](CC(=O)O)C(=O)N[C@@H](CC(C)C)C(=O)N[C@@H](CC(C)C)C(=O)N[C@@H](CCCCN)C(=O)N[C@@H](CC(C)C)C(=O)N[C@@H](CC(C)C)C(=O)N[C@@H](CC(C)C)C(=O)N[C@@H](CCCCN)C(=O)N[C@@H](C)C(=O)N[C@@H](C)C(=O)NCC(=O)N[C@@H](Cc1c[nH]c2ccccc12)C(N)=O [DKK] (H-GLLDLLKLLLKAAGW-NH2) | 1.95 ± 0.35 | 1.2 ± 0.14 | 2.57 ± 0.52 | 227 | 47 | 156 | 463 | 3.4 ± 0.28 | 6.88 | 2.75 | 10.4 ± 1.7 |  | 
CC(C)C[C@H](NC(=O)CN)C(=O)N[C@@H](CC(C)C)C(=O)N[C@@H](CC(=O)O)C(=O)N[C@@H](CC(C)C)C(=O)N[C@@H](CC(C)C)C(=O)N[C@@H](CCC(=O)O)C(=O)N[C@@H](CC(C)C)C(=O)N[C@@H](CC(C)C)C(=O)N[C@@H](CC(C)C)C(=O)N[C@@H](Cc1c[nH]cn1)C(=O)N[C@@H](C)C(=O)N[C@@H](C)C(=O)NCC(=O)N[C@@H](Cc1c[nH]c2ccccc12)C(N)=O [DEH] (H-GLLDLLELLLHAAGW-NH2) | 5.35 ± 1.91 | 3.6 ± 0.42 | 20.2 ± 6.72 | 193 | 63 | 548 | 620 | 10.5 ± 4.67 | 1.50 | 0.75 | 36.5 ± 3.92 |  | 
CC(C)C[C@H](NC(=O)CN)C(=O)N[C@@H](CC(C)C)C(=O)N[C@@H](Cc1c[nH]cn1)C(=O)N[C@@H](CC(C)C)C(=O)N[C@@H](CC(C)C)C(=O)N[C@@H](CCC(=O)O)C(=O)N[C@@H](CC(C)C)C(=O)N[C@@H](CC(C)C)C(=O)N[C@@H](CC(C)C)C(=O)N[C@@H](CCCCN)C(=O)N[C@@H](C)C(=O)N[C@@H](C)C(=O)NCC(=O)N[C@@H](Cc1c[nH]c2ccccc12)C(N)=O [HEK] (H-GLLHLLELLLKAAGW-NH2) | 2.35 ± 1.06 | 3.45 ± 2.19 | 29.8 ± 7.35 | 411 | 97 | 386 | 755 | 6.95 ± 1.63 | 0.46 | 0.44 | 143 ± 80.3 |  | 
CC(C)C[C@H](NC(=O)CN)C(=O)N[C@@H](CC(C)C)C(=O)N[C@@H](CCC(=O)O)C(=O)N[C@@H](CC(C)C)C(=O)N[C@@H](CC(C)C)C(=O)N[C@@H](CCC(=O)O)C(=O)N[C@@H](CC(C)C)C(=O)N[C@@H](CC(C)C)C(=O)N[C@@H](CC(C)C)C(=O)N[C@@H](Cc1c[nH]cn1)C(=O)N[C@@H](C)C(=O)N[C@@H](C)C(=O)NCC(=O)N[C@@H](Cc1c[nH]c2ccccc12)C(N)=O [EEH] (H-GLLELLELLLHAAGW-NH2) |  | 3.6 ± 0.85 |  | 168 | 58 | 755 | 738 | 12.9 ± 0.14 | 0.50 | 0.50 | 19.6 ± 3.96 | > 25 | significantly increased dye leakage from anionic liposomes
CC(C)C[C@@H](NC(=O)CN)C(=O)N[C@H](CC(C)C)C(=O)N[C@H](CC(=O)O)C(=O)N[C@H](CC(C)C)C(=O)N[C@H](CC(C)C)C(=O)N[C@H](CCC(=O)O)C(=O)N[C@H](CC(C)C)C(=O)N[C@H](CC(C)C)C(=O)N[C@H](CC(C)C)C(=O)N[C@H](CCCCN)C(=O)N[C@H](C)C(=O)N[C@H](C)C(=O)NCC(=O)N[C@H](Cc1c[nH]c2ccccc12)C(N)=O [d-DEK] (H-G[dL][dL][dD][dL][dL][dE][dL][dL][dL][dK][dA][dA]G[dW]-NH2) | 0.44 ± 0.1 | 0.36 | 0.57 ± 0.01 |  |  |  |  | 3.28 ± 0.21 |  |  | 5.84 ± 0.04 |  | 
CC(C)C[C@H](NC(=O)CN)C(=O)N[C@@H](CC(C)C)C(=O)N[C@@H](CCC(=O)O)C(=O)N[C@@H](CC(C)C)C(=O)N[C@@H](CC(C)C)C(=O)N[C@@H](Cc1c[nH]cn1)C(=O)N[C@@H](CC(C)C)C(=O)N[C@@H](CC(C)C)C(=O)N[C@@H](CC(C)C)C(=O)N[C@@H](CCC(=O)O)C(=O)N[C@@H](C)C(=O)N[C@@H](C)C(=O)NCC(=O)N[C@@H](Cc1c[nH]c2ccccc12)C(N)=O [EHE] (H-GLLELLHLLLEAAGW-NH2) |  | 2.55 ± 0.07 |  | 384 | 75 | 706 | 952 | 13 | 0.44 | 0.44 | 18.2 ± 1.06 | > 25 | significantly increased dye leakage from anionic liposomes
CC(C)C[C@H](NC(=O)CN)C(=O)N[C@@H](CC(C)C)C(=O)N[C@@H](CCC(=O)O)C(=O)N[C@@H](CC(C)C)C(=O)N[C@@H](CC(C)C)C(=O)N[C@@H](CCC(=O)O)C(=O)N[C@@H](CC(C)C)C(=O)N[C@@H](CC(C)C)C(=O)N[C@@H](CC(C)C)C(=O)N[C@@H](CCC(=O)O)C(=O)N[C@@H](C)C(=O)N[C@@H](C)C(=O)NCC(=O)N[C@@H](Cc1c[nH]c2ccccc12)C(N)=O [EEE] (H-GLLELLELLLEAAGW-NH2) |  | 10.6 ± 3.46 |  | 28 | 35 | 346 | 143 | 50 | 4.50 | 1.33 | 78.8 ± 5.3 | > 25 | no increase in selectivity at low pH
CC(C)C[C@H](NC(=O)CN)C(=O)N[C@@H](CC(C)C)C(=O)N[C@@H](CCCCN)C(=O)N[C@@H](CC(C)C)C(=O)N[C@@H](CC(C)C)C(=O)N[C@@H](CCC(=O)O)C(=O)N[C@@H](CC(C)C)C(=O)N[C@@H](CC(C)C)C(=O)N[C@@H](CC(C)C)C(=O)N[C@@H](CCC(=O)O)C(=O)N[C@@H](C)C(=O)N[C@@H](C)C(=O)NCC(=O)N[C@@H](Cc1c[nH]c2ccccc12)C(N)=O [KEE] (H-GLLKLLELLLEAAGW-NH2) |  | 2.05 ± 0.21 |  | 108 | 97 | 657 | 626 | 11.1 ± 1.84 | 0.20 | 0.20 | 49.4 ± 13.3 | > 25 | no increase in selectivity at low pH
